In brackets after ≈: the same amount, converted by molar mass. Where two headings read alike, the source gives them in different places.
How the values were obtained:
[1] = system: C. difficile isolate 20100584 (ribotype 014); assay: MIC by broth microdilution; type: cell-based, Clostridium difficile; conditions: Clostridioides difficile; isolate 20100584, ribotype 014; duplicate; read-out: MIC
[2] = system: C. difficile isolate 20110973 (ribotype 106); assay: MIC by broth microdilution; type: cell-based, Clostridium difficile; conditions: Clostridioides difficile; isolate 20110973, ribotype 106; duplicate; read-out: MIC
[3] = system: C. difficile isolate 20110740 (ribotype 018); assay: MIC by broth microdilution; type: cell-based, Clostridium difficile; conditions: Clostridioides difficile; isolate 20110740, ribotype 018; duplicate; read-out: MIC
[4] = system: C. difficile isolate 20110869 (ribotype 001_072); assay: MIC by broth microdilution; type: cell-based, Clostridium difficile; conditions: Clostridioides difficile; isolate 20110869, ribotype 001_072; duplicate; read-out: MIC
[5] = system: C. difficile isolate 20110961 (ribotype A12); assay: MIC by broth microdilution; type: cell-based, Clostridium difficile; conditions: Clostridioides difficile; isolate 20110961, ribotype A12; duplicate; read-out: MIC
[6] = system: C. difficile isolate 20100422 (ribotype 054); assay: MIC by broth microdilution; type: cell-based, Clostridium difficile; conditions: Clostridioides difficile; isolate 20100422, ribotype 054; duplicate; read-out: MIC
C. difficile strain 4118 [7] = assay: Minimum bactericidal concentration (MBC), logarithmic- and stationary-phase cells; type: cell-based, Clostridium difficile; conditions: Clostridioides difficile, 4118, 20–24 h, n = 2
Description: The procedure for MBC determination was adapted from that of Alam et al.[44]. Briefly, a single overnight colony of C. difficile strain 4118 (streaked onto blood agar plate) was suspended in BHIS and grown to OD600 ~ 0.4–0.5 (logarithmic phase) or for 24 h (stationary phase). In 96-well microtiter plates, cultures were added to two-fold serial dilutions of test compounds in BHIS and incubated for 20–24 h at 37 °C in an anaerobic chamber. […] MBC measurements were performed in duplicate.

[8] = system: C. difficile isolate 20121412 (ribotype 047); assay: MIC by broth microdilution; type: cell-based, Clostridium difficile; conditions: Clostridioides difficile; isolate 20121412, ribotype 047; duplicate; read-out: MIC
[9] = system: B. longum subsp. longum Strain 44B; assay: MIC by broth microdilution; type: cell-based; conditions: Bifidobacterium longum; B. longum subsp. longum 44B; LSM broth, anaerobic; duplicate; read-out: MIC
C. sporogenes ATCC 15579 = assay: MIC by broth microdilution; type: cell-based; conditions: Clostridium sporogenes, ATCC15579, BHIS, anaerobic, duplicate
16 C. difficile isolates = assay: MIC by broth microdilution, summary over 16 C. difficile isolates; type: cell-based, Clostridium difficile; conditions: for MIC50: MIC at which 50% of the 16 isolates are inhibited; for MIC90: MIC at which 90% of the 16 isolates are inhibited
P. aeruginosa PAO1 = assay: MIC by broth microdilution; type: cell-based; conditions: Pseudomonas aeruginosa; P. aeruginosa PAO1; CAMHB, aerobic; duplicate; read-out: MIC
[10] = system: C. difficile isolate 20110960 (ribotype 017); assay: MIC by broth microdilution; type: cell-based, Clostridium difficile; conditions: Clostridioides difficile; isolate 20110960, ribotype 017; duplicate; read-out: MIC
P. distasonis ATCC 8503 = assay: MIC by broth microdilution; type: cell-based; conditions: Parabacteroides distasonis, ATCC8503; P. distasonis ATCC 8503; supplemented Brucella broth, anaerobic; duplicate; read-out: MIC
[11] = system: B. fragilis Strain CL05T00C42; assay: MIC by broth microdilution; type: cell-based; conditions: Bacteroides fragilis; B. fragilis CL05T00C42; supplemented Brucella broth, anaerobic; duplicate; read-out: MIC
S. epidermidis 1457 = assay: MIC by broth microdilution; type: cell-based; conditions: Staphylococcus epidermidis; S. epidermidis 1457; CAMHB, aerobic; duplicate; read-out: MIC
Hemolysis assay = type: cell-based; conditions: sheep, pH 7.4
Description: Sheep red blood cells (Innovative Research, Novi, MI, USA) were washed three times with PBS pH 7.4. A 3% cell suspension in PBS (100 μL) was added to test compounds in PBS (100 μL, to a final concentration of 32 μg/mL), and then incubated at 37 °C for 1 h. The plate was centrifuged at 500 × g for 10 min, and supernatants (100 μL) were transferred to a clean 96-well plate. Hemolysis was determined by measuring absorbance at 540 nm, with 1% Triton X-100 as the positive control and 0.5% DMSO in PBS as the negative control. Hemolysis assays were performed in triplicate.

[12] = system: C. clostridioforme ATCC 25537; assay: MIC by broth microdilution; type: cell-based, Clostridium clostridioforme; conditions: Clostridium, ATCC25537; C. clostridioforme ATCC 25537; BHIS, anaerobic; duplicate; read-out: MIC
[13] = system: C. difficile isolate 20120016 (ribotype 019); assay: MIC by broth microdilution; type: cell-based, Clostridium difficile; conditions: Clostridioides difficile; isolate 20120016, ribotype 019; duplicate; read-out: MIC
[14] = system: C. difficile isolate 20110986 (ribotype 078); assay: MIC by broth microdilution; type: cell-based, Clostridium difficile; conditions: Clostridioides difficile; isolate 20110986, ribotype 078; duplicate; read-out: MIC
P. nigrescens ATCC 33563 = assay: MIC by broth microdilution; type: cell-based; conditions: Prevotella nigrescens, ATCC33563; P. nigrescens ATCC 33563; supplemented Brucella broth, anaerobic; duplicate; read-out: MIC
[15] = system: B. breve Strain EX336960VC19; assay: MIC by broth microdilution; type: cell-based; conditions: Bifidobacterium breve; B. breve EX336960VC19; LSM broth, anaerobic; duplicate; read-out: MIC
[16] = system: C. difficile isolate 20110742 (ribotype 002); assay: MIC by broth microdilution; type: cell-based, Clostridium difficile; conditions: Clostridioides difficile; isolate 20110742, ribotype 002; duplicate; read-out: MIC
[17] = system: C. difficile isolate 20111163 (ribotype 024); assay: MIC by broth microdilution; type: cell-based, Clostridium difficile; conditions: Clostridioides difficile; isolate 20111163, ribotype 024; duplicate; read-out: MIC
[18] = system: C. difficile isolate 20121190 (ribotype 126); assay: MIC by broth microdilution; type: cell-based, Clostridium difficile; conditions: Clostridioides difficile; isolate 20121190, ribotype 126; duplicate; read-out: MIC
[19] = system: C. difficile strain 4118 (CD4118, ATCC BAA-1870, ribotype 027); assay: MIC by broth microdilution; type: cell-based, Clostridium difficile; conditions: Clostridioides difficile, ATCCBAA1870; BHIS broth, anaerobic, 20–24 h, n = 2; read-out: MIC C. difficile 4118
[20] = system: B. thetaiotaomicron ATCC 29148; assay: microbe, parasite or virus in culture; type: cell-based; conditions: Bacteroides thetaiotaomicron, ATCC29148
[21] = system: C. difficile isolate 20110566 (ribotype 020); assay: MIC by broth microdilution; type: cell-based, Clostridium difficile; conditions: Clostridioides difficile; isolate 20110566, ribotype 020; duplicate; read-out: MIC
C. difficile strain 4118 [22] = assay: Time-kill kinetics against stationary-phase cultures; type: cell-based, Clostridium difficile; conditions: stationary-phase CD4118; for log decrease in the number of CFUs: 4 × MIC, 24 h; for time to eradicate >99.9% of viable cells: 16× MIC (rafoxanide 2 μg/mL, closantel 4 μg/mL, compound 8 1 μg/mL)
Description: At t = 0, 3, 6 and 24 h, sample aliquots were withdrawn from the treated cultures and bacterial viability was scored by plating serial dilutions on BHIS agar plates. The agar plates were incubated in the anaerobic chamber for 20–24 h at 37 °C. Kinetic experiments were performed at least twice.

B. subtilis ATCC 6051 = assay: MIC by broth microdilution; type: cell-based; conditions: Bacillus subtilis, ATCC6051; B. subtilis ATCC 6051; CAMHB, aerobic; duplicate; read-out: MIC
[23] = system: L. johnsonii Strain 135-1-CHN; assay: MIC by broth microdilution; type: cell-based; conditions: Lactobacillus johnsonii, STRAIN1351CHN; L. johnsonii 135-1-CHN; CAMHB with 5% laked horse blood, ~48 h; duplicate; read-out: MIC
[24] = minimum bactericidal concentration (≥3-log reduction) for logarithmic-phase cells, read-out: MBClog
[25] = minimum bactericidal concentration (≥3-log reduction) for stationary-phase cells, read-out: MBCstat

SMILES | MIC [1] [µg/mL] | MIC [2] [µg/mL] | MIC [3] [µg/mL] | MIC [4] [µg/mL] | MIC [5] [µg/mL] | MIC [6] [µg/mL] | MBC (C. difficile strain 4118 [7]; [24]) [µg/mL] | MBC (C. difficile strain 4118 [7]; [25]) [µg/mL] | MIC [8] [µg/mL] | MIC [9] [µg/mL] | MIC (C. sporogenes ATCC 15579) [µg/mL] | MIC (P. aeruginosa PAO1) [µg/mL] | MIC [10] [µg/mL] | MIC (P. distasonis ATCC 8503) [µg/mL] | MIC [11] [µg/mL] | MIC (S. epidermidis 1457) [µg/mL] | MIC [12] [µg/mL] | MIC [13] [µg/mL] | MIC [14] [µg/mL] | MIC (P. nigrescens ATCC 33563) [µg/mL] | further results
O=C(Nc1ccc(Oc2ccc(Cl)cc2)cc1)c1cc(Cl)cc(Cl)c1O [Compound 8] | 0.06 (≈ 0.147 µM) | 0.03 (≈ 0.0734 µM) | 0.06 (≈ 0.147 µM) | 0.06 to 0.13 (≈ 0.147 to 0.318 µM) | 0.13 (≈ 0.318 µM) | 0.25 (≈ 0.612 µM) | 0.25 (≈ 0.612 µM) | 1 (≈ 2.45 µM) | 0.13 (≈ 0.318 µM) | 8 (≈ 19.6 µM) | 4 (≈ 9.79 µM) | > 32 | 0.06 (≈ 0.147 µM) | 4 (≈ 9.79 µM) | 16 (≈ 39.2 µM) | ≤ 0.03 | 4 (≈ 9.79 µM) | 0.13 (≈ 0.318 µM) | 0.06 (≈ 0.147 µM) | 4 (≈ 9.79 µM) | MIC (16 C. difficile isolates; Clostridioides difficile, 14 isolates other than CD630 and CD4118, read-out: MIC values ranging, 14 other C. difficile isolates): 0.03 to 0.25 µg/mL (≈ 0.0734 to 0.612 µM); MIC50 (16 C. difficile isolates; n = 2): 0.06 µg/mL (≈ 0.147 µM); MIC90 (16 C. difficile isolates; n = 2): 0.25 µg/mL (≈ 0.612 µM); hemolysis at 1 h, 32 µg/mL (Hemolysis assay; sheep red blood cells (3% suspension), 32 µg/mL, 1 h, 37 °C, 1% Triton X-100 positive control, triplicate, read-out: Hemolysis (%)): < 1%; MIC [15]: 8 µg/mL (≈ 19.6 µM); MIC [16]: 0.06 µg/mL (≈ 0.147 µM); MIC [17]: 0.13 µg/mL (≈ 0.318 µM); MIC [18]: 0.25 µg/mL (≈ 0.612 µM); MIC [19]: 0.06 µg/mL (≈ 0.147 µM); MIC ([20]; B. thetaiotaomicron ATCC 29148, supplemented Brucella broth, anaerobic, duplicate, read-out: MIC): > 32 µg/mL; MIC [21]: 0.06 µg/mL (≈ 0.147 µM); log decrease in the number of CFUs (C. difficile strain 4118 [22]): 2.4 log; time to eradicate >99.9% of viable cells (C. difficile strain 4118 [22]): 24 h; MIC (B. subtilis ATCC 6051): ≤ 0.03 µg/mL; MIC [23]: 32 µg/mL (≈ 78.3 µM)
Cc1cc(C(C#N)c2ccc(Cl)cc2)c(Cl)cc1NC(=O)c1cc(I)cc(I)c1O (stereo not shown) [Closantel] | 0.25 (≈ 0.377 µM) | 0.25 (≈ 0.377 µM) | 0.25 (≈ 0.377 µM) | 1 (≈ 1.51 µM) | 0.25 (≈ 0.377 µM) | 0.25 (≈ 0.377 µM) | 2 (≈ 3.02 µM) | 4 (≈ 6.03 µM) | 0.125 (≈ 0.189 µM) | 16 (≈ 24.1 µM) | 1 (≈ 1.51 µM) | > 32 | 0.13 (≈ 0.196 µM) | 16 (≈ 24.1 µM) | > 32 | ≤ 0.03 | 4 (≈ 6.03 µM) | 0.25 (≈ 0.377 µM) | 0.25 (≈ 0.377 µM) | 8 (≈ 12.1 µM) | MIC50 (16 C. difficile isolates; Clostridioides difficile, n = 2, read-out: MIC50): 0.25 µg/mL (≈ 0.377 µM); MIC90 (16 C. difficile isolates; Clostridioides difficile, n = 2, read-out: MIC90): 0.25 µg/mL (≈ 0.377 µM); MIC Range (16 C. difficile isolates; range over 16 C. difficile isolates, n = 2): 0.13 to 1 µg/mL; hemolysis at 1 h, 32 µg/mL (Hemolysis assay): < 1%; MIC [15]: > 32 µg/mL; MIC [16]: 0.13 to 0.25 µg/mL (≈ 0.196 to 0.377 µM); MIC [17]: 0.13 to 0.25 µg/mL (≈ 0.196 to 0.377 µM); MIC [18]: 0.25 µg/mL (≈ 0.377 µM); MIC [19]: 0.25 µg/mL (≈ 0.377 µM); MIC [20]: > 32 µg/mL; MIC [21]: 0.25 µg/mL (≈ 0.377 µM); log decrease in the number of CFUs (C. difficile strain 4118 [22]): 2.2 log; time to eradicate >99.9% of viable cells (C. difficile strain 4118 [22]): 24 h; MIC (B. subtilis ATCC 6051): ≤ 0.03 µg/mL; MIC [23]: 32 µg/mL (≈ 48.3 µM)
